Laboratory results reported in patent US20150297629A1, “MODULATION OF RENIN-ANGIOTENSIN SYSTEM (RAS) RELATED DISEASES BY ANGIOTENSINOGEN” (Isis Pharmaceuticals, Inc,, priority 2012, published 2015).
Oligonucleotides are written 5' to 3', each unit as a sugar letter and its base; * is a phosphorothioate linkage, no mark a phosphodiester; rarer units and linkages stand in square brackets, end groups in braces. Plain capitals give the bases only. e = 2'-O-(2-methoxyethyl) (MOE); [5mC] = 5-methylcytosine; d = 2'-deoxy (DNA)

Key:
renin mRNA = assay: Real-time PCR of kidney renin mRNA in SHR, Study 3; assay type: in vivo, Spontaneously hypertensive (SHR) rats; conditions: 3 weeks, oligonucleotides 100 mg/kg/week, Captopril 150 mg/kg/day, PBS = 100
Method: A control group of SHR was injected with phosphate buffered saline (PBS) administered weekly for 3 weeks. Another control group of SHR was injected with 100 mg/kg/week of a control oligonucleotide (a nucleotide not targeted to angiotensinogen) administered for 3 weeks. […] RNA was extracted from kidney tissue for real-time PCR analysis of renin, using primer probe set rRenin2 (forward sequence [NT], designated herein as SEQ ID NO: 21; reverse sequence [NT], designated herein as SEQ ID NO: 22; probe sequence [NT], designated herein as SEQ ID NO: 23). The mRNA levels were normalized using the housekeeping gene, GAPDH. […] Increase in renin in the body is deleterious to the overall health of the animal (Nguyen and Muller, The Biology of the (Pro)Renin Receptor, J Am Soc Nephrol, 2010 January, 21(1):18-23). […] Results are presented as percent expression of renin, relative to control.

angiotensinogen mRNA [1] = assay: Real-time PCR of angiotensinogen mRNA in liver and kidney of Sprague-Dawley rats; assay type: in vivo; conditions: relative to PBS control
Method: A control group of rats was injected with phosphate buffered saline (PBS) administered weekly for 4 weeks. The rats were sacrificed at the end of the study at week 4. Whole liver and kidney were harvested for RNA analysis and plasma was collected for protein analysis. RNA was extracted from liver tissue for real-time PCR analysis of angiotensinogen, using primer probe set RTS3550 (forward sequence [NT], designated herein as SEQ ID NO: 18; reverse sequence [NT], designated herein as SEQ ID NO: 19; probe sequence [NT], designated herein as SEQ ID NO: 20). The mRNA levels were normalized using the housekeeping gene, GAPDH. […] Results are presented as percent inhibition of angiotensinogen, relative to control.

angiotensinogen protein [2] = assay: ELISA of angiotensinogen plasma levels in SHR, Study 3; assay type: in vivo, Spontaneously hypertensive (SHR) rats; conditions: 3 weeks, oligonucleotides 100 mg/kg/week, Captopril 150 mg/kg/day
Method: (§1) A group of SHR was injected with 100 mg/kg/week of ISIS 552668 administered for 3 weeks. A control group of SHR was injected with phosphate buffered saline (PBS) administered weekly for 3 weeks. Another control group of SHR was injected with 100 mg/kg/week of a control oligonucleotide (a nucleotide not targeted to angiotensinogen) administered for 3 weeks.
(§2) Angiotensinogen plasma levels were measured by ELISA (IBL International, Toronto, Canada). […] Results are presented as percent inhibition of angiotensinogen, relative to PBS control.

SHR [3] = assay: Systolic blood pressure by tail-cuff method in SHR before and after ISIS 552668 added to chronic Captopril, Study 4; assay type: in vivo, Spontaneously hypertensive (SHR) rats; conditions: no Captopril
female SHR rats [4] = assay: Heart size after harvest in female SHR rats, Study 2; assay type: in vivo, Spontaneously hypertensive (SHR) rats; conditions: after 3 weeks, versus wild-type controls
Method: The size of the heart was measured immediately after harvest.

angiotensinogen protein [5] = assay: ELISA of angiotensinogen plasma levels in Sprague-Dawley rats; assay type: in vivo; conditions: for Percent inhibition of angiotensinogen protein: plasma, relative to PBS control
Method: (§3) Groups of Sprague-Dawley rats were injected with 10 mg/kg/week, 20 mg/kg/week, 40 mg/kg/week, or 80 mg/kg/week of ISIS 552668 administered for 4 weeks. A control group of rats was injected with phosphate buffered saline (PBS) administered weekly for 4 weeks. The rats were sacrificed at the end of the study at week 4. Whole liver and kidney were harvested for RNA analysis and plasma was collected for protein analysis.
as §2

female SHR rats [6] = assay: Blood pressure by tail-cuff method in female SHR rats with subsequent Captopril, Study 2; assay type: in vivo, Spontaneously hypertensive (SHR) rats; conditions: then Captopril 50 mg/kg/day for 4 days
Method: A control group of female SHR rats was injected with phosphate buffered saline (PBS) administered weekly for 2 weeks. Another control group constituted a group of wild-type rats injected with phosphate buffered saline (PBS) administered weekly for 2 weeks. […] Systolic blood pressure (SBP), mean arterial pressure (MAP), and diastolic blood pressure (DBP) in the rats was measured by the tail-cuff volume-pressure method (Kent Scientific, Torrington, Conn.).

female SHR rats [7] = assay: Blood pressure by tail-cuff method in female SHR rats, Study 1; assay type: in vivo, Spontaneously hypertensive (SHR) rats; conditions: 2 weeks
Method: Groups of female SHR rats were injected with 50 mg/kg/week, 75 mg/kg/week, or 100 mg/kg/week of ISIS 552668 administered for 2 weeks. A control group of female SHR rats was injected with phosphate buffered saline (PBS) administered weekly for 2 weeks. Another control group constituted a group of wild-type rats injected with phosphate buffered saline (PBS) administered weekly for 2 weeks.
(§4) Systolic blood pressure (SBP), mean arterial pressure (MAP), and diastolic blood pressure (DBP) in the rats was measured by the tail-cuff volume-pressure method (Kent Scientific, Torrington, Conn.).

Dahl/SS rats = assay: Blood pressure by tail-cuff method in Dahl/SS rats; assay type: in vivo, Dahl/Salt Sensititive (Dahl/SS) rats; conditions: female Dahl/SS rats, 8% NaCl diet; 3 weeks; ISIS oligonucleotides 40 mg/kg/week, Captopril 150 mg/kg daily
Method: The rats were fed a diet with 8% NaCl. A group of female Dahl/SS rats was injected with 40 mg/kg/week of ISIS 552668 administered for 3 weeks. A group of female Dahl/SS rats was injected with 40 mg/kg/week of control oligonucleotides ISIS 141923 administered for 3 weeks. […] A control group of female Dahl/SS rats was injected with phosphate buffered saline (PBS) administered weekly for 3 weeks. Another control group constituted a group of Dahl/Salt Resistant (Dahl/SR) rats injected with phosphate buffered saline (PBS) administered weekly for 3 weeks.
Systolic blood pressure (SBP), mean arterial pressure (MAP), and diastolic blood pressure (DBP) in the rats was measured by the tail-cuff volume-pressure method (Kent Scientific). The results are presented in Table 12, expressed as the percent decrease in blood pressure compared to the control SHR group.

SHR [8] = assay: Mean arterial pressure by tail-cuff method in SHR, Study 3; assay type: in vivo, Spontaneously hypertensive (SHR) rats; conditions: ISIS 552668 and control oligonucleotide 100 mg/kg/week, Captopril 150 mg/kg/day
Method: A control group of SHR was injected with phosphate buffered saline (PBS) administered weekly for 3 weeks. Another control group of SHR was injected with 100 mg/kg/week of a control oligonucleotide (a nucleotide not targeted to angiotensinogen) administered for 3 weeks. […] Mean arterial pressure (MAP) in the rats was measured by the tail-cuff volume-pressure method (Kent Scientific, Torrington, Conn.).

angiotensinogen = assay: Immunohistochemical analysis of liver, cardiac and kidney tissues in SHR, Study 3; assay type: in vivo, Spontaneously hypertensive (SHR) rats; conditions: 100 mg/kg/week for 3 weeks, compared to the PBS control
Method: as §1

angiotensinogen mRNA [9] = assay: Real-time PCR of angiotensinogen mRNA in SHR tissues, Study 3; assay type: in vivo, Spontaneously hypertensive (SHR) rats; conditions: 3 weeks, oligonucleotides 100 mg/kg/week, Captopril 150 mg/kg/day
Method: as §1
[…] The mRNA levels were normalized using the housekeeping gene, GAPDH. […] Results are presented as percent inhibition of angiotensinogen, relative to control.

Sprague-Dawley rats = assay: Blood pressure by tail-cuff volume-pressure method in Sprague-Dawley rats; assay type: in vivo; conditions: after 4 wks of treatments
Method: as §3, §4

ISIS 552668: 5-10-5 MOE gapmer CACTGATTTTTGCCCAGGAT (SEQ ID NO: 17), phosphorothioate linkages, 5-methylcytosines, targeted to rat angiotensinogen (antisense e[5mC]*eA*e[5mC]*eT*eG*dA*dT*dT*dT*dT*dT*dG*d[5mC]*d[5mC]*d[5mC]*eA*eG*eG*eA*eT)
Percent increase of kidney renin mRNA (renin mRNA): 379% | Percent inhibition of angiotensinogen mRNA, Kidney (angiotensinogen mRNA [1]; 10 mg/kg/wk for 4 weeks): 41% | Percent inhibition of angiotensinogen mRNA, Liver (angiotensinogen mRNA [1]; 10 mg/kg/wk for 4 weeks): 19% | Percent inhibition of angiotensinogen mRNA, Kidney (angiotensinogen mRNA [1]; 20 mg/kg/wk for 4 weeks): 68% | Percent inhibition of angiotensinogen mRNA, Liver (angiotensinogen mRNA [1]; 20 mg/kg/wk for 4 weeks): 59% | Percent inhibition of angiotensinogen mRNA, Kidney (angiotensinogen mRNA [1]; 40 mg/kg/wk for 4 weeks): 75% | Percent inhibition of angiotensinogen mRNA, Liver (angiotensinogen mRNA [1]; 40 mg/kg/wk for 4 weeks): 86% | Percent inhibition of angiotensinogen mRNA, Kidney (angiotensinogen mRNA [1]; 80 mg/kg/wk for 4 weeks): 77% | Percent inhibition of angiotensinogen mRNA, Liver (angiotensinogen mRNA [1]; 80 mg/kg/wk for 4 weeks): 96% | Percent inhibition of angiotensinogen protein in the plasma compared to the PBS control (angiotensinogen protein [2]): 91% | Blood pressure (SBP), Before ISIS 552668 dosing (SHR [3]; ISIS 552668 50 mg/kg/week): 146 | Blood pressure (SBP), Before ISIS 552668 dosing (SHR [3]; ISIS 552668 100 mg/kg/week): 131 | Effect on heart size of the SHR rats (female SHR rats [4]): reversed the increase in heart size of the SHR rats to that observed in the wild-type controls | Percent inhibition of angiotensinogen protein (angiotensinogen protein [5]; 10 mg/kg/wk for 4 weeks): 25% | Percent inhibition of angiotensinogen protein (angiotensinogen protein [5]; 20 mg/kg/wk for 4 weeks): 38% | Percent inhibition of angiotensinogen protein (angiotensinogen protein [5]; 40 mg/kg/wk for 4 weeks): 83% | Percent inhibition of angiotensinogen protein (angiotensinogen protein [5]; 80 mg/kg/wk for 4 weeks): 93% | ED50 for plasma protein reductions (angiotensinogen protein [5]; weekly dosing for 4 weeks): 23.6 mg/kg | DBP (female SHR rats [6]; ASO 50 mg/kg/wk for 2 weeks): 82 mm Hg | MAP (female SHR rats [6]; ASO 50 mg/kg/wk for 2 weeks): 97 mm Hg | SBP (female SHR rats [6]; ASO 50 mg/kg/wk for 2 weeks): 127 mm Hg | DBP (female SHR rats [6]; ASO 75 mg/kg/wk for 2 weeks): 74 mm Hg | MAP (female SHR rats [6]; ASO 75 mg/kg/wk for 2 weeks): 87 mm Hg | SBP (female SHR rats [6]; ASO 75 mg/kg/wk for 2 weeks): 113 mm Hg | DBP (female SHR rats [6]; ASO 100 mg/kg/wk for 2 weeks): 81 mm Hg | MAP (female SHR rats [6]; ASO 100 mg/kg/wk for 2 weeks): 94 mm Hg | SBP (female SHR rats [6]; ASO 100 mg/kg/wk for 2 weeks): 120 mm Hg | DBP (female SHR rats [7]; 50 mg/kg/wk): 100 mm Hg | MAP (female SHR rats [7]; 50 mg/kg/wk): 114 mm Hg | SBP (female SHR rats [7]; 50 mg/kg/wk): 144 mm Hg | DBP (female SHR rats [7]; 75 mg/kg/wk): 98 mm Hg | MAP (female SHR rats [7]; 75 mg/kg/wk): 111 mm Hg | SBP (female SHR rats [7]; 75 mg/kg/wk): 140 mm Hg | DBP (female SHR rats [7]; 100 mg/kg/wk): 81 mm Hg | MAP (female SHR rats [7]; 100 mg/kg/wk): 95 mm Hg | SBP (female SHR rats [7]; 100 mg/kg/wk): 122 mm Hg | DBP (Dahl/SS rats): 94 mm Hg | MAP (Dahl/SS rats): 111 mm Hg | SBP (Dahl/SS rats): 146 mm Hg | MAP, Week 1 (SHR [8]): 117 mm Hg | MAP, Week 2 (SHR [8]): 104 mm Hg | MAP, Week 3 (SHR [8]): 109 mm Hg | Angiotensinogen in liver, cardiac and kidney tissues by immunohistochemical analysis (angiotensinogen): significant reduction of angiotensinogen | Percent inhibition of angiotensinogen mRNA compared to the PBS control, Heart (angiotensinogen mRNA [9]): 89% | Percent inhibition of angiotensinogen mRNA compared to the PBS control, Kidney (angiotensinogen mRNA [9]): 76% | Percent inhibition of angiotensinogen mRNA compared to the PBS control, Liver (angiotensinogen mRNA [9]): 87% | DBP (Sprague-Dawley rats; 10 mg/kg/wk): 107 mm Hg | MAP (Sprague-Dawley rats; 10 mg/kg/wk): 117 mm Hg | SBP (Sprague-Dawley rats; 10 mg/kg/wk): 138 mm Hg | DBP (Sprague-Dawley rats; 40 mg/kg/wk): 79 mm Hg | MAP (Sprague-Dawley rats; 40 mg/kg/wk): 92 mm Hg | SBP (Sprague-Dawley rats; 40 mg/kg/wk): 118 mm Hg | DBP (Sprague-Dawley rats; 80 mg/kg/wk): 68 mm Hg | MAP (Sprague-Dawley rats; 80 mg/kg/wk): 82 mm Hg | SBP (Sprague-Dawley rats; 80 mg/kg/wk): 109 mm Hg
